The source of these data is patent US7179943B2, “Bicyclic derivatives that modulate voltage-gated potassium channels and methods of use thereof” (Wyeth, priority 2004, dated 2007).

Where a name gives a salt, the structure may show the parent alone.

Tested on in one data set: not given
Assay: not given
Conditions: not given
On to `CC1(C)C2CC[C@]1(C)C(=O)C(C(=O)Nc1cc(C(F)(F)F)cc(C(F)(F)F)c1)C2=O` (stereo partly drawn) [Example 1, (1S)-N-[3,5-bis(trifluoromethyl)phenyl]-1,8,8-trimethyl-2,4-dioxobicyclo[3.2.1] octane-3-carboxamide], for which the melting point (usually the temperature, or range, at which the solid turns liquid) was 68 to 72 °C.

For `CC1(C)C2CC1C(=O)C(C(=O)Nc1cc(Cl)cc(Cl)c1)C2=O` (stereo not drawn) (as salt: sodium) [Example 33, 6,6-Dimethyl-2,4-dioxo-N-(3,5-dichlorophenyl)bicyclo[3.1.1]heptane-3-carboxamide], the melting point was greater than 230 °C. Compound `CC1(C)C2CC[C@@]1(C)C(=O)C(C(=O)Nc1ccc(C(F)(F)F)cc1)C2=O` (stereo partly drawn) [Example 18, (1R)-N-[4-(trifluoromethyl)phenyl]-1,8,8-trimethyl-2,4-dioxobicyclo[3.2.1] octane-3-carboxamide] showed a melting point of 78 to 81 °C. As for `CC1(C)C2CC[C@@]1(C)C(=O)C(C(=O)Nc1ccc(Cl)c(Cl)c1)C2=O` (stereo partly drawn) [Example 14, (1R)-N-(3,4-dichlorophenyl)-1,8,8-trimethyl-2,4-dioxobicyclo[3.2.1]octane-3-carboxamide], the melting point is 89 to 91 °C. The compound `CC1(C)C2CC1C(=O)C(C(=O)Nc1ccc(C(F)(F)F)cc1)C2=O` (stereo not drawn) (as salt: sodium) [Example 28, 6,6-Dimethyl-2,4-dioxo-N-[4-(trifluoromethyl)phenyl]bicyclo[3.1.1]heptane-3-carboxamide] gave a melting point greater than 230 °C. Still for that read-out and setting: then `CC1(C)C2CC1C(=O)C(C(=O)Nc1ccc(F)c(Cl)c1)C2=O` (stereo not drawn) (as salt: sodium) [Example 30, 6,6-Dimethyl-2,4-dioxo-N-(3-chloro-4-fluorophenyl)bicyclo[3.1.1]heptane-3-carboxamide], with greater than 230 °C; and `CC1(C)C2CC1C(=O)C(C(=O)Nc1ccc(Cl)cc1)C2=O` (stereo not drawn) (as salt: sodium) [Example 36, 6,6-Dimethyl-2,4-dioxo-N-(4-chlorophenyl)bicyclo[3.1.1]heptane-3-carboxamide], with greater than 230 °C. In the case of `CC1(C)C2CC1C(=O)C(C(=O)Nc1cccc(Cl)c1)C2=O` (stereo not drawn) (as salt: sodium) [Example 35, 6,6-Dimethyl-2,4-dioxo-N-(3-chlorophenyl)bicyclo[3.1.1]heptane-3-carboxamide], the melting point was greater than 230 °C. Compound `CC1(C)C2CC[C@]1(C)C(=O)C(C(=O)Nc1ccc(Cl)c(C(F)(F)F)c1)C2=O` (stereo partly drawn) [Example 7, (1S)-N-[4-chloro-3-(trifluoromethyl)phenyl]-1,8,8-trimethyl-2,4-dioxobicyclo [3.2.1]octane-3-carboxamide] came in with a melting point of 118 to 120 °C.

`CC1(C)C2CC1C(=O)C(C(=O)Nc1ccc(F)cc1)C2=O` (stereo not drawn) (as salt: sodium) [Example 34, 6,6-Dimethyl-2,4-dioxo-N-(4-fluorophenyl)bicyclo[3.1.1]heptane-3-carboxamide]: the melting point is greater than 230 °C. `O=C(Nc1ccc(C(F)(F)F)cc1)C1C(=O)C2CCC(C2)C1=O` (stereo not drawn) (as salt: sodium) [Example 26, N-[4-(trifluoromethyl)phenyl]-2,4-dioxobicyclo[3.2.1]octane-3-carboxamide] had a melting point of 250 to 260 °C. Same read-out and setting: then `CC1(C)C2CC[C@]1(C)C(=O)C(C(=O)Nc1cc(Cl)cc(Cl)c1)C2=O` (stereo partly drawn) [Example 3, (1S)-N-(3,5-dichlorophenyl)-1,8,8-trimethyl-2,4-dioxobicyclo[3.2.1]octane-3-carboxamide], with 112 to 114 °C. With `CC1(C)C2CC[C@]1(C)C(=O)C(C(=O)Nc1ccc([N+](=O)[O-])cc1)C2=O` (stereo partly drawn) [Example 6, (1S)-N-(4-nitrophenyl)-1,8,8-trimethyl-2,4-dioxobicyclo[3.2.1]octane-3-carboxamide], the melting point was 170 to 172 °C. The compound `CC1(C)C2CC1C(=O)C(C(=O)Nc1ccc(Cl)c(Cl)c1)C2=O` (stereo not drawn) (as salt: sodium) [Example 32, 6,6-Dimethyl-2,4-dioxo-N-(3,4-dichlorophenyl)bicyclo[3.1.1]heptane-3-carboxamide] gave a melting point greater than 230 °C. Consider `CC1(C)C2CC[C@]1(C)C(=O)C(C(=O)Nc1cccc([N+](=O)[O-])c1)C2=O` (stereo partly drawn) [Example 5, (1S)-N-(3-nitrophenyl)-1,8,8-trimethyl-2,4-dioxobicyclo[3.2.1]octane-3-carboxamide], for which the melting point was 100 to 102 °C. The compound `CC1(C)C2CC1C(=O)C(C(=O)Nc1ccc(F)c(C(F)(F)F)c1)C2=O` (stereo not drawn) (as salt: sodium) [Example 31, 6,6-Dimethyl-2,4-dioxo-N-[4-fluoro-3 (trifluoromethyl)phenyl]bicyclo[3.1.1]heptane-3-carboxamide] had a melting point greater than 230 °C. On the same count and under the same terms, then `CC1(C)C2CC1C(=O)C(C(=O)Nc1cccc(C(F)(F)F)c1)C2=O` (stereo not drawn) (as salt: sodium) [Example 29, 6,6-Dimethyl-2,4-dioxo-N-[3-(trifluoromethyl)phenyl]bicyclo[3.1.1]heptane-3-carboxamide], with greater than 230 °C; and `CC1(C)C2CC[C@@]1(C)C(=O)C(C(=O)Nc1cccc(C(F)(F)F)c1)C2=O` (stereo partly drawn) [Example 17, (1R)-N-[3-(trifluoromethyl)phenyl]-1,8,8-trimethyl-2,4-dioxobicyclo[3.2.1] octane-3-carboxamide], with 66 to 68 °C. `Cc1ccc(NC(=O)C2C(=O)C3CC[C@](C)(C2=O)C3(C)C)cc1` (stereo partly drawn) [Example 11, (1S)-N-[4-methylphenyl]-1,8,8-trimethyl-2,4-dioxobicyclo[3.2.1]octane-3-carboxamide]: the melting point was in the range of 80 to 82 °C. Still for that read-out and setting: as for `O=C(Nc1cc(C(F)(F)F)cc(C(F)(F)F)c1)C1C(=O)C2CCC(CC2)C1=O` (stereo not drawn) (as salt: sodium) [Example 37, N-[3,5-bis(trifluoromethyl)phenyl]-2,4-dioxobicyclo[3.2.2]nonane-3-carboxamide], the figure is 286 to 288 °C.

In a further data set the target is T1, human Kv1.1/Kvβ1 potassium ion channel complex (Homo sapiens, UniProt Q09470).
T1 construct: expressed in transfected cells; host or cells: Xenopus oocytes injected with cRNA
T1 sequence (Q09470 whole entry, one chain of several): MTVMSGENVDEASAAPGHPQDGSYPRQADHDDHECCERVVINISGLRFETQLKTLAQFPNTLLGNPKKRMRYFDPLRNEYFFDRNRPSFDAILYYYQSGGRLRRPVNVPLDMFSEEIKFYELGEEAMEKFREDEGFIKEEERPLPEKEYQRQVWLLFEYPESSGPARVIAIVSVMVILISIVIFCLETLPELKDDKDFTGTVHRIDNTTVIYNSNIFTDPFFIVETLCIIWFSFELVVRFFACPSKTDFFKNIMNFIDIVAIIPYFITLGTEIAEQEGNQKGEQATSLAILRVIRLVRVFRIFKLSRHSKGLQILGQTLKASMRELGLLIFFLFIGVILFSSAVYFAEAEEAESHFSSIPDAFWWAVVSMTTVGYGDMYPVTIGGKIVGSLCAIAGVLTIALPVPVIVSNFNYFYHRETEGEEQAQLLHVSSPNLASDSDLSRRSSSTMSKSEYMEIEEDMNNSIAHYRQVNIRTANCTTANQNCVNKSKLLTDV
Briefly: Xenopus oocytes current assay (inhibition of inactivation, voltage clamp). In kind it is cell-based. The conditions noted are these: Xenopus oocytes expressing hKv1.1/hKvβ1, relative to control bath solution. The method, then: The compounds of formula I were examined for their ability to inhibit the inactivation of the human Kv1.1/Kvβ1 potassium ion channel complex in vitro using electrophysiological current recordings on inactivating Kv1.1/Kvβ1 channels expressed in Xenopus oocytes. Xenopus oocytes were harvested from frogs under general anesthesia using aseptic techniques. Oocytes were treated with 2 mg/ml collagenase for 1–1.5 hr, defolliculated, and injected with 40 nL cRNA (a mixture of hky1.1 and hKvβ1) produced using standard molecular biological techniques (Sambrook, et al., 1989, Molecular Cloning: A Laboratory Manual). The concentration of hKv1.1/hKvp1 cRNA varies, but was generally about 50 ng/μL hKv1.1 and […] hKβ1.
Currents were recorded using standard voltage clamp amplifiers at room temperature. Recordings were performed in the bath solution “ND-96” containing 96 mM NaCl, 2 mM KCl, 1 mm CaCl2, 1 mM MgCl2, 10 mM HEPES and […] Gentamycin (pH=7.6). The pipette (electrode) solution generally consisted of […]. Electrodes were made from WPI TW150F-4 borosilicate glass (or equivalent) and typically had resistances of 0.5–1.5 Mohms. The standard current-voltage (IV) pulse protocol consisted of voltage steps from −60 mV to +50 mV, in 10 mV increments for 200 ms, at a frequency of one IV set per 2 minutes. Data were digitized and analyzed by standard software packages.
Solutions of the test compounds consisting of test compounds dissolved in bath solution were applied by bath perfusion using gravity or pump-driven flow. A minimum of 2 mL (10 times the bath volume) over 3 minutes were flowed for each compound concentration tested. Data were averaged across at least 3 cells tested for each concentration.
Test compounds were examined for their ability to inhibit the inactivation of the steady state portion of the IV curve.
Take `O=C(Nc1ccc(Cl)c(Cl)c1)C1C(=O)C2CCC(C2)C1=O` (stereo not drawn) [Example 24]: the “Percent Increase in Steady State Current Of human Kv1.1/Kvβ1 @ a concentration of 50 μM” value came to 28%.

The same data set, now with this note: Xenopus oocytes expressing hKv1.1/hKvβ1, relative to control bath solution, read-out: Percent Increase in Steady State Current Of human Kv1.1/Kvβ1 @ a concentration of 50 μM.
Take `CC1(C)C2CC1C(=O)C(C(=O)Nc1cc(Cl)cc(Cl)c1)C2=O` (stereo not drawn) [Example 33, 6,6-Dimethyl-2,4-dioxo-N-(3,5-dichlorophenyl)bicyclo[3.1.1]heptane-3-carboxamide]: the activation at 50 µM was 326%.

Take `CC1(C)C2CC[C@]1(C)C(=O)C(C(=O)Nc1cc(C(F)(F)F)cc(C(F)(F)F)c1)C2=O` (stereo partly drawn) [Example 1, (1S)-N-[3,5-bis(trifluoromethyl)phenyl]-1,8,8-trimethyl-2,4-dioxobicyclo[3.2.1] octane-3-carboxamide]: the activation at 50 µM worked out at 16%. Consider `CC1(C)C2CC[C@@]1(C)C(=O)C(C(=O)Nc1ccc(C(F)(F)F)cc1)C2=O` (stereo partly drawn) [Example 18, (1R)-N-[4-(trifluoromethyl)phenyl]-1,8,8-trimethyl-2,4-dioxobicyclo[3.2.1] octane-3-carboxamide], for which the activation at 50 µM was 96%. Take `CC1(C)C2CC1C(=O)C(C(=O)Nc1cccc(C(F)(F)F)c1)C2=O` (stereo not drawn) [Example 29, 6,6-Dimethyl-2,4-dioxo-N-[3-(trifluoromethyl)phenyl]bicyclo[3.1.1]heptane-3-carboxamide]: the activation at 50 µM was found to be 67%.

For the compound `CC1(C)C2CC1C(=O)C(C(=O)Nc1ccc(C(F)(F)F)cc1)C2=O` (stereo not drawn) [Example 28, 6,6-Dimethyl-2,4-dioxo-N-[4-(trifluoromethyl)phenyl]bicyclo[3.1.1]heptane-3-carboxamide], the activation at 50 µM is 190%.

Regarding `CC1(C)C2CC1C(=O)C(C(=O)Nc1ccc(F)cc1)C2=O` (stereo not drawn) [Example 34, 6,6-Dimethyl-2,4-dioxo-N-(4-fluorophenyl)bicyclo[3.1.1]heptane-3-carboxamide], the activation at 50 µM worked out at 94%.

In the case of `CC1(C)C2CC1C(=O)C(C(=O)Nc1ccc(Cl)c(Cl)c1)C2=O` (stereo not drawn) [Example 32, 6,6-Dimethyl-2,4-dioxo-N-(3,4-dichlorophenyl)bicyclo[3.1.1]heptane-3-carboxamide], the activation at 50 µM was 311%. With `O=C(Nc1cc(C(F)(F)F)cc(C(F)(F)F)c1)C1C(=O)C2CCC(CC2)C1=O` (stereo not drawn) [Example 37, N-[3,5-bis(trifluoromethyl)phenyl]-2,4-dioxobicyclo[3.2.2]nonane-3-carboxamide], the activation at 50 µM came to 68%. For `CC1(C)C2CC1C(=O)C(C(=O)Nc1ccc(Cl)cc1)C2=O` (stereo not drawn) [Example 36, 6,6-Dimethyl-2,4-dioxo-N-(4-chlorophenyl)bicyclo[3.1.1]heptane-3-carboxamide], the activation at 50 µM was found to be 125%. Turning to `CC1(C)C2CC1C(=O)C(C(=O)Nc1ccc(F)c(C(F)(F)F)c1)C2=O` (stereo not drawn) [Example 31, 6,6-Dimethyl-2,4-dioxo-N-[4-fluoro-3 (trifluoromethyl)phenyl]bicyclo[3.1.1]heptane-3-carboxamide], the activation at 50 µM was 282%.

In the case of `CC1(C)C2CC1C(=O)C(C(=O)Nc1ccc(F)c(Cl)c1)C2=O` (stereo not drawn) [Example 30, 6,6-Dimethyl-2,4-dioxo-N-(3-chloro-4-fluorophenyl)bicyclo[3.1.1]heptane-3-carboxamide], the activation at 50 µM was 124%. Take `CC1(C)C2CC1C(=O)C(C(=O)Nc1cccc(Cl)c1)C2=O` (stereo not drawn) [Example 35, 6,6-Dimethyl-2,4-dioxo-N-(3-chlorophenyl)bicyclo[3.1.1]heptane-3-carboxamide]: the activation at 50 µM was 107%.
